Patent publication US7351687B2, “Antibiotic 107891, its factors A1 and A2, pharmaceutically acceptable salts and compositions, and use thereof” (priority 2003, dated 2008)
≈ marks a conversion by molar mass, not a printed value. Read-outs that look alike come from different tables or passages of the source.

What was measured:
[1] = tested on: Staph. epidermidis; test: MIC, broth microdilution method (NCCLS M7-A5); format: cell-based
[2] = tested on: Strept. pneumoniae; test: MIC, broth microdilution method (NCCLS M7-A5); format: cell-based
[3] = tested on: Ent. gallinarum; test: MIC, broth microdilution method (NCCLS M7-A5); format: cell-based; settings: 4174 Ent. gallinarum
Protocol: Antimicrobial activity of the antibiotic 107891 was determined by the broth microdilution method according to the National Committee for Clinical Laboratory Standards recommendations (NCCLS, document M7-A5).
The strains used were clinical isolates or strains from American Type Culture Collection (ATCC).
Antibiotic 107891 was dissolved in DMSO to obtain a 1000 μg/ml stock solution, and subsequently diluted in water to obtain working solution. The media used were cation-adjusted Mueller Hinton broth (CAMHB) for Staphylococci, M. catarrhalis, Enterococci and L. monocytogenes; Todd Hewitt broth (THB) for Streptococci; GC medium+1% Isovitalex+1% haemine for Neisseria spp.; Brain Hearth Infusion+1% C supplement for H. influenzae; Lactobacillus broth for Lactobacilli; Middlebrook 7H9 with Middlebrook OADC enrichment for M. smegmatis; RPMI 1640 Medium for C. albicans. Wilkins Chalgren broth+oxyrase (1:25 v/v) for Clostridia; Brucella broth containing cisteine (0.5 g/L) for Propionibacteria. Inocula for bacteria were 10^5 CFU/ml. C. albicans inoculum was 1×10^4 CFU/ml. All the tests were performed in presence of 0.02% of bovine serum albumin (BSA). […] After 18-24 hours visual readings were performed and MICs determined. […]
Table VIII reports the antimicrobial activities of the individual Factors A1 and A2 of antibiotic 107891. MICs were determined by microbroth dilution method as above described.

[4] = tested on: Staph. aureus
[5] = tested on: Ent. faecalis
[6] = tested on: Ent. faecium
[7] = tested on: Neisseria meningitidis; settings: 1613 Neisseria meningitidis
[8] = tested on: Neisseria gonorrhaee; settings: 997 Neisseria gonorrhaee
[9] = tested on: Propionibacterium acnes; settings: 1016 Propionibacterium. acnes
[10] = 1400 Staphylococcus aureus cl. isol. Met r
[11] = 4341 Ent. faecalis VanB (first line, r17)
[12] = 4341 Ent. faecalis VanB (second line, r19)
[13] = 569 Enterococcus faecium cl. isol. Van A

C=C1NC(=O)C(Cc2c[nH]c3ccc(Cl)cc23)NC(=O)C(NC(=O)C(=CC)NC(=O)C(N)C(C)C)CSCC(C(=O)NC2C(=O)N3CCCC3C(=O)NCC(=O)NC(C(=O)NC(C(=O)NC3CSCC4NC(=O)C(CC(N)=O)NC(=O)C(CSCC5NC(=O)C(Cc6ccccc6)NC(=O)C(CS/C=C\NC5=O)NC4=O)NC(=O)CNC(=O)CNC(=O)CNC(=O)C4C(O)C(O)CN4C3=O)C(C)O)CSC2C)NC(=O)C(CC(C)C)NC1=O (centres unmarked) [Factor A1]
MIC ([1]; 3894 Staph. epidermidis Met-R): ≦0.03 μg/ml | MIC ([2]; 3915 Strept. pneumoniae Pen-S): ≦0.0015 μg/ml | MIC ([2]; 3919 Strept. pneumoniae Pen-R): ≦0.0015 μg/ml | MIC [3]: 1 µg/mL (≈ 0.445 µM) | MIC ([4]; 819 Staph. aureus Met-S): ≦0.03 μg/ml | MIC [4, 10]: 0.13 µg/mL (≈ 0.0578 µM) | MIC ([4]; 1524 Staph. aureus Met-R): ≦0.03 μg/ml | MIC ([4]; 2235 Staph. aureus Met-R): 0.06 µg/mL (≈ 0.0267 µM) | MIC [5]: 1 µg/mL (≈ 0.445 µM) | MIC ([5]; 4323 Ent. faecalis VanA): ≦0.03 μg/ml | MIC [5, 11]: 0.5 µg/mL (≈ 0.222 µM) | MIC [5, 12]: 2 µg/mL (≈ 0.889 µM) | MIC ([5]; 4397 Ent. faecalis VanB): 1 µg/mL (≈ 0.445 µM) | MIC ([5]; J1 Ent. faecalis VanA): 1 µg/mL (≈ 0.445 µM) | MIC ([6]; 3 Ent. faecium Van A): 0.5 µg/mL (≈ 0.222 µM) | MIC ([6]; 4 Ent. faecium Van A): 1 µg/mL (≈ 0.445 µM) | MIC [6, 13]: 1 µg/mL (≈ 0.445 µM) | MIC ([6]; 4339 Ent. faecium VanD): 0.25 µg/mL (≈ 0.111 µM) | MIC ([6]; 6349 Ent. faecium Van A LNZ-R): 2 µg/mL (≈ 0.889 µM) | MIC ([6]; A8 Ent. faecium Van A): 0.5 µg/mL (≈ 0.222 µM) | MIC ([6]; D561 Ent. faecium Van A): 2 µg/mL (≈ 0.889 µM) | MIC [7]: 0.25 µg/mL (≈ 0.111 µM) | MIC [8]: 0.5 µg/mL (≈ 0.222 µM) | MIC [9]: <0.03 µg/mL

C=C1NC(=O)C(Cc2c[nH]c3ccc(Cl)cc23)NC(=O)C(NC(=O)C(=CC)NC(=O)C(N)C(C)C)CSCC(C(=O)NC2C(=O)N3CCCC3C(=O)NCC(=O)NC(C(=O)NC(C(=O)NC3CSCC4NC(=O)C(CC(N)=O)NC(=O)C(CSCC5NC(=O)C(Cc6ccccc6)NC(=O)C(CS/C=C\NC5=O)NC4=O)NC(=O)CNC(=O)CNC(=O)CNC(=O)C4CC(O)CN4C3=O)C(C)O)CSC2C)NC(=O)C(CC(C)C)NC1=O (centres unmarked) [Factor A2]
MIC ([1]; 3881 Staph. epidermidis Met-R): ≦0.03 μg/ml | MIC ([2]; 3915 Strept. pneumoniae Pen-S): ≦0.0015 μg/ml | MIC ([2]; 3919 Strept. pneumoniae Pen-R): ≦0.0015 μg/ml | MIC [3]: 1 µg/mL (≈ 0.448 µM) | MIC ([4]; 819 Staph. aureus Met-S): ≦0.03 μg/ml | MIC [4, 10]: 0.13 µg/mL (≈ 0.0582 µM) | MIC ([4]; 1524 Staph. aureus Met-R): ≦0.03 μg/ml | MIC ([4]; 2235 Staph. aureus Met-R): 0.06 µg/mL (≈ 0.0269 µM) | MIC [5]: 2 µg/mL (≈ 0.896 µM) | MIC ([5]; 4323 Ent. faecalis VanA): ≦0.03 μg/ml | MIC [5, 11]: 0.5 µg/mL (≈ 0.224 µM) | MIC [5, 12]: 2 µg/mL (≈ 0.896 µM) | MIC ([5]; 4397 Ent. faecalis VanB): 1 µg/mL (≈ 0.448 µM) | MIC ([5]; J1 Ent. faecalis VanA): 1 µg/mL (≈ 0.448 µM) | MIC ([6]; 3 Ent. faecium Van A): 0.5 µg/mL (≈ 0.224 µM) | MIC ([6]; 4 Ent. faecium Van A): 1 µg/mL (≈ 0.448 µM) | MIC ([6]; 568 Enterococcus faecium cl. isol.): 2 µg/mL (≈ 0.896 µM) | MIC [6, 13]: 2 µg/mL (≈ 0.896 µM) | MIC ([6]; 4339 Ent. faecium VanD): 0.25 µg/mL (≈ 0.112 µM) | MIC ([6]; 6349 Ent. faecium Van A LNZ-R): 2 µg/mL (≈ 0.896 µM) | MIC ([6]; A8 Ent. faecium Van A): 0.5 µg/mL (≈ 0.224 µM) | MIC ([6]; D561 Ent. faecium Van A): 2 µg/mL (≈ 0.896 µM) | MIC [7]: 0.25 µg/mL (≈ 0.112 µM) | MIC [8]: 0.25 µg/mL (≈ 0.112 µM) | MIC [9]: 0.06 µg/mL (≈ 0.0269 µM)

C=C1NC(=O)[C@H](Cc2c[nH]c3ccc(Cl)cc23)NC(=O)[C@H](NC(=O)/C(=C/C)NC(=O)[C@@H](N)C(C)C)CSC[C@@H](C(=O)N[C@H]2C(=O)N3CCC[C@H]3C(=O)NCC(=O)N[C@H](C(=O)N[C@H](C(=O)N[C@@H]3CSC[C@@H]4NC(=O)[C@H](CC(N)=O)NC(=O)[C@@H](CSC[C@@H]5NC(=O)[C@H](Cc6ccccc6)NC(=O)[C@@H](CS/C=C\NC5=O)NC4=O)NC(=O)CNC(=O)CNC(=O)CNC(=O)[C@@H]4CCCN4C3=O)[C@@H](C)O)CS[C@H]2C)NC(=O)[C@H](CC(C)C)NC1=O [MF-BA-1768α1, reference compound]
MIC [5]: 4 µg/mL (≈ 1.8 µM)
